Values quoted from earlier work as cited in patent US20260009079A1, “BIOMARKERS OF PREGNANCY LOSS” (The University of Warwick, priority 2022, published 2026).

Test system: bone marrow-derived MSCs
Details: given over 3 menstrual cycles; previously reported (Tewary et al., 2020)

In the case of `N[C@@H](CC(=O)N1CCn2c(nnc2C(F)(F)F)C1)Cc1cc(F)c(F)cc1F` [sitagliptin], the “recruitment of bone marrow-derived MSCs” value is given as “increases”.
